Data set [1] in a line: pH of excipient solutions and of crushed EKB-569 tablet slurries. In kind it is physicochemical. Particulars: for pH at 0.1% excipient, Excipient Solution: 0.1% solution/suspension of basic excipient; for pH at 0.5% excipient, Excipient Solution: 0.5% solution/suspension of basic excipient; for pH at 1% excipient, Excipient Solution: 1% solution/suspension of basic excipient; for pH at 5% excipient, Excipient Solution: 5% solution/suspension of basic excipient. An excerpt:
The data in Table 3 supported testing improved stability of a pharmaceutical composition by lowering the pH of the pharmaceutical composition. […]

How the values of data set [2] were obtained: Compositions of tablets containing 0.5% and 0.1% of these excipients remain the same. Quantity of microcrystalline cellulose was adjusted to allow for the changes in the amounts of basic excipients. Tablets were manufactured using granulation.
Tablets were stored at 40° C./75% RH for 1 month.

Data set [3] is described as follows: Stability of EKB-569 solution (degradation rate constant in buffers). Type of data set: physicochemical. Particulars: for EKB-569 degradation rate constant: 0.2 mg/mL in 0.02 M buffer with 50% Acetonitrile.
The nature of data set [4]: Solid state stability for EKB-569 drug substance at 56° C./75% RH. Type of data set: physicochemical. Particulars: for % EKB-569 remaining / Total impurities: drug substance, 56° C./75% RH. As for the experimental part:
A study was conducted at 56° C./75% RH for 2 weeks. The samples were filled into 2-ml flame sealed Kimble score-break ampules.

Molecules are shown by their SMILES.

As for `NC(CO)(CO)CO` [Tromethamine], in data set [1], the “pH at 0.1% excipient, Excipient Solution” value came to 9.98; the “pH at 0.5% excipient, Excipient Solution” value was found to be 9.99; the “pH at 1% excipient, Excipient Solution” value was 10.51; the “pH at 5% excipient, Excipient Solution” value was 10.87.
For `OC[C@H]1O[C@@H](O[C@H]2[C@H](O)[C@@H](O)C(O)O[C@@H]2CO)[C@H](O)[C@@H](O)[C@H]1O` (stereo partly shown) [lactose], the “effect on stability of EKB-569 pharmaceutical composition” value in data set [2] is listed as “no effect on stability”.
Regarding `O=C([O-])[O-].[Ca+2]` [Calcium carbonate], in data set [1], the “pH at 0.1% excipient, Excipient Solution” value was 8.95; the “pH at 0.5% excipient, Excipient Solution” value is recorded as 8.93; the “pH at 1% excipient, Excipient Solution” value was determined as 9.02; the “pH at 5% excipient, Excipient Solution” value is given as 9.12.
The corresponding values for `O=C([O-])[O-].[Na+].[Na+]` [Sodium carbonate] are 10.99, 11.21, 11.31 and 11.5.
For `O=C([O-])O.[Na+]` [Sodium bicarbonate] the same measures were 8.69, 8.56, 8.34 and 8.18.
Take `O=C([O-])CN(CCN(CC(=O)[O-])CC(=O)[O-])CC(=O)[O-].[Na+].[Na+].[Na+].[Na+]` [EDTA, tetra sodium]: in data set [1], the “pH at 0.1% excipient, Excipient Solution” value was determined as 10.55; the “pH at 0.5% excipient, Excipient Solution” value came out at 10.84; the “pH at 1% excipient, Excipient Solution” value was found to be 10.94; the “pH at 5% excipient, Excipient Solution” value was determined as 10.75.
Turning to `CCOc1cc2ncc(C#N)c(Nc3ccc(F)c(Cl)c3)c2cc1NC(=O)C=CCN(C)C` [EKB-569, 4-dimethylamino-but-2-enoic acid [4-(3-chloro-4-fluoro-phenylamino)-3-cyano-7-ethoxy-quinolin-6-yl]-amide], the “EKB-569 degradation rate constant” value was 0.0013 h⁻¹ in data set [3] (pH 1.2 (HCl), 80° C.); 0.0003 h⁻¹ in data set [3] (pH 3.0 (Phoshphate), 80° C.); 0.0008 h⁻¹ in data set [3] (pH 5.0 (Acetate), 56° C.); 0.0113 h⁻¹ in data set [3] (pH 5.0 (Acetate), 80° C.); 0.003 h⁻¹ in data set [3] (pH 7.4 (Phosphate), 56° C.); 0.0235 h⁻¹ in data set [3] (pH 7.4 (Phosphate), 80° C.). Also, the “EKB-569 degradation rate constant” value in data set [3] (pH 9 (Glycine), 56° C.) is 0.0031 h⁻¹; in data set [3] (pH 9 (Glycine), 80° C.), 0.0229 h⁻¹. Besides, the “stability in solution as a function of pH” value in data set [3] (pH range 1.2-9, 56° C. and 80° C.) was “more stable in acidic solution”. In addition, the “stability in the solid state” value in data set [4] (56° C./75% RH for 2 weeks) is given as “chemical instability in the solid state”. Moreover, the “% EKB-569 remaining” value in data set [4] (3 Days) was 98.1%; in data set [4] (7 Days), 97.7%; in data set [4] (14 Days) it was 97.1%; in data set [4] (Initial), 99.1%. Also, the Total impurities in data set [4] (3 Days) stood at 1.1%; in data set [4] (7 Days), 1.68%; in data set [4] (14 Days) it was 2.62%; in data set [4] (Initial), 0.78%.
In the case of `N=C(N)NCCC[C@H](N)C(=O)O` [Arginine], in data set [1], the “pH at 0.1% excipient, Excipient Solution” value was determined as 10.18; the “pH at 0.5% excipient, Excipient Solution” value was 10.57; the “pH at 1% excipient, Excipient Solution” value is recorded as 10.91; the “pH at 5% excipient, Excipient Solution” value is on record as 11.23.
